Results: patent US20240299294A1, “TARGETED DELIVERY OF EFFECTIVE THERAPEUTIC MEDICATIONS TO THE RESPIRATORY TRACT” (Amphastar Pharmaceuticals, Inc., priority 2020, published 2024)
Where two headings read alike, the source gives them in different places.

Assays:
SARS-CoV-2 virus = test: microbe, parasite or virus in culture; format: cell-based; details: Severe acute respiratory syndrome coronavirus 2, VeroE6/TMPRSS2
[1] = Cell viability (MTT) assay, CC50, Study APS002-1; format: cell-based; details: African green monkey, Vero E6-TMPRSS2 cells
Experimental: In the antiviral cell assay, Vero E6-TMPRSS2 cells were seeded into 96 well plates and grown to 80-90% confluency. Compounds were prepared using an 8-point, half-log (˜3-fold) dilution starting at 100 μM. Vehicle (Placebo) and positive control (Remdesivir) wells were included to control for any influence on cell viability. After one hour, compounds were removed and virus was added at a single concentration (100× Median Tissue Culture Infectious Dose (TCID50)), together with equivalent serial dilutions of test compound. Following infection/treatment, cells were incubated for a further hour. After infection, virus/treatment was removed and an overlay medium was added to the cells, together with equivalent serial dilutions of test compound. Cells were visually inspected daily for the appearance of any cytopathic effect (“CPE”). A cell viability (MTT) assay was performed once CPE was complete.

in vivo [2] = test: in vivo; design: species or system mice; details: mouse
Experimental: The breathing tank 400 is a specially designed stainless steel breathing tank, which is used for mice to breathe in aerosolized formulations of the medications described earlier in the Examples. At the start of each treatment session, a specific number of sprays of a medication formulation were sprayed into the pre-cleaned tank. To ensure consistent concentration of test article, a stirring fan installed inside the tank was started at a speed of 400 rpm before the first spray of the test articles (such as, the medications). Thirty seconds after the last spray, eight mice were mounted to the inhalation chamber to breathe in aerosolized formulations of the medications from the breathing tank for a specified duration. Animals were then taken off the breathing tank (defined as the “0” time point post dosing).
The purpose of the study is to evaluate the lung delivery characteristics of single dose HCQ inhalation in a mouse model. […] Thirty seconds after the last spray (t=0 minute), eight mice were mounted to the inhalation chamber to breathe the medication aerosol from the breathing tank for 10 minutes.
Mice were euthanized and mice lung samples were collected and homogenated at eight time points of 10′, 30′, 45′, 1 h, 2 h, 3 h, 4 h and 6 h after treatment. Four mice were used at each time point and in total 32 mice were studied.

in vivo [3] = details: mouse
Experimental: For the single-dose study, 48 mice were treated with the highest dose level (16 sprays) of Formulation 11. Twelve time points were measured: baseline (within one hour before dosing), 5 min, 15 min, 30 min, 1 h, 2 h, 3 h, 4 h, 6 h, 9 h, 24 h and 48 h post dosing. Each animal was sampled twice at two different time points and four mice per gender were used at each time point.

mice = test: 5-day repeated-dose local and systemic toxicity study of HCQ inhalation (Example 12); format: in vivo
Experimental: A total of 200 mice were used, in which 40 mice (male:female=1:1) were assigned to each study arm.
Mice were dosed four sessions a day for 5 days, with 3 hours interval between two consecutive treatment sessions. Each session was a 6-minute nose-only inhalation treatment after spraying the designated articles (4, 8 or 16 sprays) into the 21.5 L breathing tank.
After the treatment, 24 mice (male:female=1:1) were sacrificed on Day 6 (or Day-1 post completion of treatment, PCT Day-1) for acute toxicity evaluation and 16 mice (male:female=1:1) were sacrificed on Day 19 (PCT Day-14) for recovery evaluation.
Standard local toxicity evaluation items included: (1) general safety including in-life daily observation and body weight measurement; (2) gross macroscopic observation and organ weight measurement; (3) clinical pathology including hematology and blood chemistry tests; and (4) microscopic histopathological examination.

[4] = in vivo
in vivo [5] = details: mouse; remark: listed apart in the source
[6] = cited from earlier work
[7] = Dose range and dose response study of HCQ for lung delivery (Example 9); details: mouse, in vivo, 16 sprays
[8] = Estimation of HCQ concentration in alveolar lining fluid (ALF) (Example 11); details: mouse, in vivo, 10 sprays

For CCC(CC)COC(=O)[C@H](C)N[P@](=O)(OC[C@H]1O[C@@](C#N)(c2ccc3c(N)ncnn23)[C@H](O)[C@@H]1O)Oc1ccccc1 [Remdesivir], the EC50 (SARS-CoV-2 virus) was 2.35 µM and the CC50 [1] was > 20 µM.

With CCN(CCO)CCCC(C)Nc1ccnc2cc(Cl)ccc12 (stereo not drawn) [HCQ, Hydroxychloroquine] the “appearance of mice after the treatment” value (in vivo [2]) was “appeared healthy and normal”, the half-life (in vivo [2]; inhaled or intranasal) was 4.6 h and the half-life (in vivo [3]; both) was ≥ 4 h. For the same molecule, the Kp (in vivo [3]; both, in vivo, 16 sprays) was ≥ 25, the Kp at 0.083 h (in vivo [3]; female, in vivo, 16 sprays) was 66.3 and the Kp at 0.25 h (in vivo [3]; female, in vivo, 16 sprays) was 50.6. For the same molecule, the Kp at 0.5 h (in vivo [3]; female, in vivo, 16 sprays) was 38, the Kp at 1 h (in vivo [3]; female, in vivo, 16 sprays) was 100 and the Kp at 3 h (in vivo [3]; female, in vivo, 16 sprays) was 193. For the same molecule, the Kp at 24 h (in vivo [3]; female, in vivo, 16 sprays) was 26.9, the concentration at 0.083 h (in vivo [3]; female, in vivo, 16 sprays) was 133 ng/mL and the concentration at 0.25 h (in vivo [3]; female, in vivo, 16 sprays) was 89.2 ng/mL. It also gave a concentration at 0.5 h (in vivo [3]; female, in vivo, 16 sprays) of 93.6 ng/mL, a concentration at 1 h (in vivo [3]; female, in vivo, 16 sprays) of 40.2 ng/mL and a concentration at 3 h (in vivo [3]; female, in vivo, 16 sprays) of 16.8 ng/mL. For the same molecule, the concentration at 24 h (in vivo [3]; female, in vivo, 16 sprays) was 12.6 ng/mL, the Kp at 0.083 h (in vivo [3]; male, in vivo, 16 sprays) was 58.4 and the Kp at 0.25 h (in vivo [3]; male, in vivo, 16 sprays) was 51.5. It also gave a Kp at 0.5 h (in vivo [3]; male, in vivo, 16 sprays) of 85.2, a Kp at 1 h (in vivo [3]; male, in vivo, 16 sprays) of 90.9 and a Kp at 3 h (in vivo [3]; male, in vivo, 16 sprays) of 250. It also gave a Kp at 24 h (in vivo [3]; male, in vivo, 16 sprays) of 56.5, a concentration at 0.083 h (in vivo [3]; male, in vivo, 16 sprays) of 163 ng/mL and a concentration at 0.25 h (in vivo [3]; male, in vivo, 16 sprays) of 92 ng/mL. For the same molecule, the concentration at 0.5 h (in vivo [3]; male, in vivo, 16 sprays) was 55 ng/mL, the concentration at 1 h (in vivo [3]; male, in vivo, 16 sprays) was 40.2 ng/mL and the concentration at 3 h (in vivo [3]; male, in vivo, 16 sprays) was 13.2 ng/mL. The concentration at 24 h (in vivo [3]; male, in vivo, 16 sprays) was 4.9 ng/mL, the “local toxicity, nasal turbinates and larynx” value (mice; Formulation 11, PCT-Day 1) was “low incidence of minor changes” and the “histopathological finding in the thymus” value (mice; mouse, in vivo) was “minimal to mild tingible body macrophages”. For the same molecule, the “local toxicity, histopathological examination of six organs” value (mice; mouse, in vivo) was “No dose related abnormalities”, the EC50 (SARS-CoV-2 virus; Vero E6-TMPRSS2 cells, virus 100× TCID50, read-out: EC50) was 11.3 µM and the CC50 [1] was > 100 µM. The “time the delivered medication can be detected in the mouse lungs” value [4] was “no less than 24 h”, the half-life (in vivo [5]; both) was 6 to 8 h and the half-life (in vivo [5]) was 4.6 to 7.8 h. For the same molecule, the half-life ([6]; HCQ oral tablet delivery) was 123.5 days, the “share of oral tablet dose distributed to the plasma and ultimately reaching the lungs and alveoli” value ([6]; in vivo, po) was “about 0.07%” and the concentration at 0.083 h ([7]; female) was 8820 ng/g. For the same molecule, the concentration at 0.25 h ([7]; female) was 4510 ng/g, the concentration at 0.5 h ([7]; female) was 3560 ng/g and the concentration at 1 h ([7]; female) was 4040 ng/g. The concentration at 3 h ([7]; female) was 3250 ng/g, the concentration at 24 h ([7]; female) was 339 ng/g and the concentration at 0.083 h ([7]; male) was 9510 ng/g. It also gave a concentration at 0.25 h ([7]; male) of 4740 ng/g, a concentration at 0.5 h ([7]; male) of 4680 ng/g and a concentration at 1 h ([7]; male) of 3660 ng/g. It also gave a concentration at 3 h ([7]; male) of 3300 ng/g, a concentration at 24 h ([7]; male) of 277 ng/g and a concentration at 10 min [8] of 476 µM. For the same molecule, the concentration at 6 h [8] was 188 µM.
